Test results as given in ChEMBL document CHEMBL1909625, “Sesquiterpene lactones from Inula falconeri, a plant endemic to the Himalayas, as potential anti-inflammatory agents” (Eur J Med Chem, 2011).

Tests used:
RAW264.7 [1] = assay: Cytotoxicity against mouse RAW264.7 cells at antiinflammatory IC50 level by MTT assay; type: cell-based
RAW264.7 [2] = assay: Antiinflammatory activity in mouse RAW264.7 cells assessed as inhibition of LPS-induced NO production pretreated for 30 mins before LPS challenge measured 24 hrs after LPS challenge by Griess reaction method; type: functional, cell-based

| IC50 (RAW264.7 [2]) [µM] | SMILES | Activity (RAW264.7 [1]) |
| --- | --- | --- |
| 41.2 | C=C1C[C@@H]2OC(=O)[C@H](C)[C@H]2C[C@@H]2[C@@H]1CC[C@@]2(C)O | Non-toxic |
| 9.64 | C=C1C(=O)O[C@H]2CC(=C)[C@H]3CC[C@@](C)(O)[C@@H]3C[C@H]12 [INUVISCOLIDE] | Non-toxic |
| 0.4 | C=C1C(=O)O[C@@H]2C[C@@H](C)[C@@H]3CCC(=O)[C@@]3(C)C[C@H]12 | Non-toxic |
| 0.11 | C=C1C(=O)O[C@@H]2C[C@@]3(C)[C@@H](O)C[C@@H](O)C(=C)[C@@H]3C[C@H]12 [GRANILIN] | Non-toxic |
| 64.9 | CC(=O)CCC1=CC[C@@H]2[C@H](C)C(=O)O[C@@H]2C[C@@H]1C | Non-toxic |
| 0.29 | C=C1C(=O)O[C@H]2CC(=C)[C@H]3CC[C@@](C)(O)[C@@H]3[C@@H](O)[C@H]12 | Non-toxic |
| 2.05 | C=C1C(=O)O[C@H]2C[C@@H](C)[C@@H]3CC[C@H](OC(C)=O)[C@@]3(C)[C@@H](O)[C@H]12 | Non-toxic |
| 9.89 | C=C1C(=O)O[C@H]2C[C@@H](C)[C@@H]3CC[C@H](O)[C@@]3(C)C[C@H]12 [PSEUDOGUAIANOLIDE] | Non-toxic |
| 21.9 | CC(=O)CCC1=C[C@@H](O)[C@@H]2[C@H](C)C(=O)O[C@@H]2C[C@@H]1C | Non-toxic |
| 5.48 | C=C1C(=O)O[C@@H]2C[C@H](C)C(CCC(C)O)=CC[C@H]12 (some centres not stated) | Non-toxic |
| 1.17 | C=C1C(=O)O[C@@H]2C[C@@]3(C)CCC[C@H](C)C3=C[C@H]12 [HELENINE] | Non-toxic |
| 18.9 | C=C1C(=O)O[C@@H]2C[C@H](C)[C@]3(CCC(C)O)O[C@@H]3C[C@H]12 (some centres not stated) | Non-toxic |
| 10.8 | C[C@@H]1C[C@@H]2OC(=O)[C@H](C)[C@H]2C[C@]2(C)C(=O)CC[C@@H]12 | Non-toxic |
| 0.07 | C=C1C(=O)O[C@H]2C[C@@H](C)[C@@H]3CCC(=O)[C@@]3(C)[C@@H](OC(C)=O)[C@H]12 [ERGOLIDE] | Non-toxic |
| 12.9 | C=C1C(=O)O[C@H]2C[C@H](C)[C@@H]3CC(=O)C(C)=C3C[C@H]12 [XERANTOLIDE] | Non-toxic |

More lines, now with the values behind:

| SMILES | IC50 (RAW264.7 [2]) [µM] | Activity (RAW264.7 [1]) |
| --- | --- | --- |
| C[C@@H]1C[C@@H]2OC(=O)[C@H](C)[C@H]2[C@H](O)[C@]2(C)C(=O)CC[C@@H]12 | 20.3 | Non-toxic |
| C=C1C(=O)O[C@H]2C=C(C)[C@@H]3CC[C@](C)(O)[C@@H]3C[C@H]12 [4-EPI-ISOINUVISCOLIDE] | 5.94 | Non-toxic |
| C=C1C(=O)O[C@H]2C[C@@H](C)[C@@H]3CC[C@H](O)[C@@]3(C)[C@@H](OC(C)=O)[C@H]12 | 0.36 | Non-toxic |
| C=C1C(=O)O[C@@H]2C[C@H](C)C(CCC(C)OC(C)=O)=CC[C@H]12 (some centres not stated) | 0.81 | Non-toxic |
| C=C1C(=O)O[C@H]2C[C@@H](C)C(CCC(C)O)=CC[C@H]12 (some centres not stated) | 0.87 | Non-toxic |
| C=C1C(=O)O[C@@H]2C[C@@]3(C)[C@@H](O)C[C@@H](OC(=O)C(C)C)C(=C)[C@@H]3C[C@H]12 | 9.12 | Non-toxic |
| C=C1C(=O)O[C@H]2C=C(C)[C@H]3CC[C@@](C)(O)[C@@H]3[C@@H](O)[C@H]12 | 0.13 | Non-toxic |
| C=C1C(=O)O[C@@H]2C[C@@]3(C)[C@@H](O)C[C@@H](OC(=O)C=C(C)C)C(=C)[C@@H]3C[C@H]12 | 4.7 | Non-toxic |
| C=C1C[C@@H]2OC(=O)[C@@H](C)[C@H]2C[C@@H]2[C@@H]1CC[C@@]2(C)O | 19.5 | Non-toxic |
| C=C1C[C@H]2OC(=O)C(=C)[C@H]2C[C@@H]2[C@@H]1CC[C@]2(C)O | 7.3 | Non-toxic |
| C=C1C(=O)O[C@H](CC(C)=O)[C@@H]1CC1=C(C)CCC1=O [POSTIA SECOGUAIANOLIDE] | 15.8 | Non-toxic |
| C=C(CCCOC(=O)CCCCCCC/C=C\C/C=C\CCCCC)[C@@H]1CC(C)(C)[C@H]1CCC(C)=O | 35.5 | Non-toxic |
| N=C(N)NN [PIMAGEDINE] | 0.2 |  |
| C=C1C[C@H]2OC(=O)C(=C)[C@H]2C[C@@H]2[C@@H]1CC[C@@]2(C)O | 3.94 | Non-toxic |
| CC(=O)O[C@H]1[C@H]2[C@H](C[C@@H](C)[C@@H]3CCC(=O)[C@]31C)OC(=O)[C@@H]2C [DIHYDROERGOLIDE] | 8.34 | Non-toxic |
| C=C1C(=O)O[C@@H]2C[C@H](C)C(CCC(C)=O)=CC[C@H]12 [TOMENTOSIN] | 7.14 | Non-toxic |
| C=C1C(=O)O[C@@H]2C[C@@]3(C)O[C@@H]3CC[C@@]3(C)O[C@H]3C[C@@H]12 | 6.4 | Non-toxic |
| C=C1C(=O)O[C@H]2C[C@@H](C)[C@@H]3CCC(=O)[C@@]3(C)[C@@H](O)[C@H]12 [CARPESIOLIN] | 2.18 | Non-toxic |
| C=C1C(=O)O[C@H]2C[C@H](C)[C@@H]3CC[C@@]4(C)O[C@@]34C[C@H]12 | 0.11 | Non-toxic |
